ChEMBL document CHEMBL4138146, “A Schmidt rearrangement-mediated synthesis of novel tetrahydro-benzo[1,4]diazepin-5-ones as potential anticancer and antiprotozoal agents” (Eur J Med Chem, 2017)

Assays:
Format in all cases: functional
[1] = test system: OVCAR-3; test: Growth inhibition of human OVCAR3 cells assessed as cell growth at 10 uM incubated for 48 hrs by sulforhodamine B assay relative to control; details: OVCAR-3, 48 h, read-out: Activity
[2] = test system: OVCAR-4; test: Growth inhibition of human OVCAR4 cells assessed as cell growth at 10 uM incubated for 48 hrs by sulforhodamine B assay relative to control; details: OVCAR-4, 48 h, read-out: Activity
[3] = test system: PC-3; test: Growth inhibition of human PC3 cells assessed as cell growth at 10 uM incubated for 48 hrs by sulforhodamine B assay relative to control; details: PC-3, 48 h, read-out: Activity
[4] = test system: MDA-MB-435; test: Growth inhibition of human MDA-MB-435 cells assessed as cell growth at 10 uM incubated for 48 hrs by sulforhodamine B assay relative to control; details: MDA-MB-435, 48 h, read-out: Activity
[5] = test system: SK-MEL-28; test: Growth inhibition of human SK-MEL-28 cells assessed as cell growth at 10 uM incubated for 48 hrs by sulforhodamine B assay relative to control; details: SK-MEL-28, 48 h, read-out: Activity
[6] = test system: NCI-H522; test: Growth inhibition of human NCI-H522 cells assessed as cell growth at 10 uM incubated for 48 hrs by sulforhodamine B assay relative to control; details: NCI-H522, 48 h, read-out: Activity
[7] = test system: NCI-H460; test: Growth inhibition of human NCI-H460 cells assessed as cell growth at 10 uM incubated for 48 hrs by sulforhodamine B assay relative to control; details: NCI-H460, 48 h, read-out: Activity
[8] = test system: SNB-19; test: Growth inhibition of human SNB19 cells assessed as cell growth at 10 uM incubated for 48 hrs by sulforhodamine B assay relative to control; details: SNB-19, 48 h, read-out: Activity
[9] = test system: HCT-116; test: Growth inhibition of human HCT116 cells assessed as cell growth at 10 uM incubated for 48 hrs by sulforhodamine B assay relative to control; details: HCT-116, 48 h, read-out: Activity
[10] = test system: 786-0; test: Growth inhibition of human 786-0 cells assessed as cell growth at 10 uM incubated for 48 hrs by sulforhodamine B assay relative to control; details: 786-0, 48 h, read-out: Activity
[11] = test system: MDA-MB-468; test: Growth inhibition of human MDA-MB-468 cells assessed as cell growth at 10 uM incubated for 48 hrs by sulforhodamine B assay relative to control; details: MDA-MB-468, 48 h, read-out: Activity
[12] = test system: ACHN; test: Growth inhibition of human ACHN cells assessed as cell growth at 10 uM incubated for 48 hrs by sulforhodamine B assay relative to control; details: read-out: Activity
[13] = test system: MDA-MB-231; test: Growth inhibition of human MDA-MB-231 cells assessed as cell growth at 10 uM incubated for 48 hrs by sulforhodamine B assay relative to control; details: MDA-MB-231, 48 h, read-out: Activity
[14] = test system: OVCAR-5; test: Growth inhibition of human OVCAR5 cells assessed as cell growth at 10 uM incubated for 48 hrs by sulforhodamine B assay relative to control; details: OVCAR-5, 48 h, read-out: Activity
[15] = test system: SK-OV-3; test: Growth inhibition of human SKOV3 cells assessed as cell growth at 10 uM incubated for 48 hrs by sulforhodamine B assay relative to control; details: SK-OV-3, 48 h, read-out: Activity
[16] = test system: CCRF-CEM; test: Growth inhibition of human CCRF-CEM cells assessed as cell growth at 10 uM incubated for 48 hrs by sulforhodamine B assay relative to control; details: read-out: Activity
[17] = test system: HT-29; test: Growth inhibition of human HT-29 cells assessed as cell growth at 10 uM incubated for 48 hrs by sulforhodamine B assay relative to control; details: HT-29, 48 h, read-out: Activity
[18] = test system: HOP-62; test: Growth inhibition of human HOP62 cells assessed as cell growth at 10 uM incubated for 48 hrs by sulforhodamine B assay relative to control; details: HOP-62, 48 h, read-out: Activity
[19] = test system: HOP-92; test: Growth inhibition of human HOP92 cells assessed as cell growth at 10 uM incubated for 48 hrs by sulforhodamine B assay relative to control; details: HOP-92, 48 h, read-out: Activity
[20] = test system: SK-MEL-2; test: Growth inhibition of human SK-MEL-2 cells assessed as cell growth at 10 uM incubated for 48 hrs by sulforhodamine B assay relative to control; details: SK-MEL-2, 48 h, read-out: Activity
[21] = test system: A549; test: Growth inhibition of human A549/ATCC cells assessed as cell growth at 10 uM incubated for 48 hrs by sulforhodamine B assay relative to control; details: A549, 48 h, read-out: Activity
[22] = test system: SNB-75; test: Growth inhibition of human SNB75 cells assessed as cell growth at 10 uM incubated for 48 hrs by sulforhodamine B assay relative to control; details: SNB-75, 48 h, read-out: Activity
[23] = test system: NCI/ADR-RES; test: Growth inhibition of human NCI/ADR-RES cells assessed as cell growth at 10 uM incubated for 48 hrs by sulforhodamine B assay relative to control; details: read-out: Activity
[24] = test system: T47D; test: Growth inhibition of human T47D cells assessed as cell growth at 10 uM incubated for 48 hrs by sulforhodamine B assay relative to control; details: read-out: Activity
[25] = test system: U-251; test: Growth inhibition of human U251 cells assessed as cell growth at 10 uM incubated for 48 hrs by sulforhodamine B assay relative to control; details: U-251, 48 h, read-out: Activity
[26] = test system: UO-31; test: Growth inhibition of human UO31 cells assessed as cell growth at 10 uM incubated for 48 hrs by sulforhodamine B assay relative to control; details: UO-31, 48 h, read-out: Activity
[27] = test system: A498; test: Growth inhibition of human A498 cells assessed as cell growth at 10 uM incubated for 48 hrs by sulforhodamine B assay relative to control; details: A498, 48 h, read-out: Activity
[28] = test system: Malme-3M; test: Growth inhibition of human MALME-3M cells assessed as cell growth at 10 uM incubated for 48 hrs by sulforhodamine B assay relative to control; details: read-out: Activity
[29] = test system: Hs-578T; test: Growth inhibition of human Hs 578T cells assessed as cell growth at 10 uM incubated for 48 hrs by sulforhodamine B assay relative to control; details: read-out: Activity
[30] = test system: OVCAR-8; test: Growth inhibition of human OVCAR8 cells assessed as cell growth at 10 uM incubated for 48 hrs by sulforhodamine B assay relative to control; details: OVCAR-8, 48 h, read-out: Activity
[31] = test system: KM12; test: Growth inhibition of human KM12 cells assessed as cell growth at 10 uM incubated for 48 hrs by sulforhodamine B assay relative to control; details: KM12, 48 h, read-out: Activity
[32] = test system: SW-620; test: Growth inhibition of human SW620 cells assessed as cell growth at 10 uM incubated for 48 hrs by sulforhodamine B assay relative to control; details: SW-620, 48 h, read-out: Activity
[33] = test system: LOX IMVI; test: Growth inhibition of human LOXIMVI cells assessed as cell growth at 10 uM incubated for 48 hrs by sulforhodamine B assay relative to control; details: read-out: Activity

| Compound | growth at 10 µM [1] [%] | growth at 10 µM [2] [%] | growth at 10 µM [3] [%] | growth at 10 µM [4] [%] | growth at 10 µM [5] [%] | growth at 10 µM [6] [%] | growth at 10 µM [7] [%] | growth at 10 µM [8] [%] | growth at 10 µM [9] [%] | growth at 10 µM [10] [%] | growth at 10 µM [11] [%] | growth at 10 µM [12] [%] | growth at 10 µM [13] [%] | growth at 10 µM [14] [%] | growth at 10 µM [15] [%] | growth at 10 µM [16] [%] | growth at 10 µM [17] [%] | growth at 10 µM [18] [%] | growth at 10 µM [19] [%] | growth at 10 µM [20] [%] | further results |
| --- | --- | --- | --- | --- | --- | --- | --- | --- | --- | --- | --- | --- | --- | --- | --- | --- | --- | --- | --- | --- | --- |
| O=C1CC(c2cc3ccc4ccccc4c3[nH]c2=O)Nc2ccccc21 (stereo not drawn) | 115 | 87.8 | 102 | 109 | 106 | 89.2 | 81.1 | 92.5 | 93 | 95.6 | 91.2 | 106 | 69.3 | 114 | 98.8 | 101 | 99.1 | 91.1 | 104 | 96.2 | growth at 10 µM [21]: 92.4%; growth at 10 µM [22]: 102%; growth at 10 µM [23]: 108%; growth at 10 µM [24]: 93.1%; growth at 10 µM [25]: 87.6%; growth at 10 µM [26]: 95.4%; growth at 10 µM [27]: 115%; growth at 10 µM [28]: 84.7%; growth at 10 µM [29]: 77.3%; growth at 10 µM [30]: 110%; growth at 10 µM [31]: 94.5%; growth at 10 µM [32]: 96%; growth at 10 µM [33]: 84% |
| Cc1cccc2cc(C3CNC(=O)c4ccccc4N3)c(=O)[nH]c12 (stereo not drawn) | 104 | 92.1 | 89.1 | 106 | 102 | 70 | 109 | 114 | 95.5 | 111 | 107 | 98.6 | 110 | 102 | 96.9 | 123 | 81.3 | 89.6 | 94.9 | 96.9 | growth at 10 µM [21]: 91.7%; growth at 10 µM [22]: 86.5%; growth at 10 µM [23]: 103%; growth at 10 µM [24]: 93.1%; growth at 10 µM [25]: 94.5%; growth at 10 µM [26]: 92.8%; growth at 10 µM [27]: 103%; growth at 10 µM [28]: 96%; growth at 10 µM [29]: 105%; growth at 10 µM [30]: 103%; growth at 10 µM [31]: 99.6%; growth at 10 µM [32]: 110%; growth at 10 µM [33]: 94.3% |
| Cc1ccc2[nH]c(=O)c(C3CNC(=O)c4ccccc4N3)cc2c1 (stereo not drawn) | 107 | 108 | 98.5 | 108 | 108 | 93.6 | 106 | 99.3 | 106 | 103 | 110 | 103 | 114 | 92.9 | 110 | 97.4 | 104 | 97.1 | 110 | 110 | growth at 10 µM [21]: 95.7%; growth at 10 µM [22]: 97.4%; growth at 10 µM [23]: 108%; growth at 10 µM [24]: 116%; growth at 10 µM [25]: 99.5%; growth at 10 µM [26]: 84.3%; growth at 10 µM [27]: 93%; growth at 10 µM [28]: 109%; growth at 10 µM [29]: 105%; growth at 10 µM [30]: 113%; growth at 10 µM [31]: 102%; growth at 10 µM [32]: 106%; growth at 10 µM [33]: 96.8% |
| O=C1CC(c2cc3ccccc3[nH]c2=O)Nc2ccccc21 (stereo not drawn) | 113 | 109 | 104 | 108 | 110 | 90.7 | 105 | 99.4 | 91.6 | 93.9 | 96.5 | 99.9 | 83.9 | 106 | 99.4 | 106 | 99.5 | 100 | 108 | 98.3 | growth at 10 µM [21]: 95.5%; growth at 10 µM [22]: 90.4%; growth at 10 µM [23]: 108%; growth at 10 µM [24]: 94.3%; growth at 10 µM [25]: 99.7%; growth at 10 µM [26]: 95.2%; growth at 10 µM [27]: 79.4%; growth at 10 µM [28]: 106%; growth at 10 µM [29]: 99.7%; growth at 10 µM [30]: 108%; growth at 10 µM [31]: 105%; growth at 10 µM [32]: 104%; growth at 10 µM [33]: 98.2% |
| CCCCn1c(=O)c(C2CNC(=O)c3ccccc3N2)cc2ccccc21 (stereo not drawn) | 99.8 | 103 | 106 | 105 | 102 | 92.5 | 102 | 91 | 94.9 | 92.4 | 107 | 98.2 | 77.5 | 96.3 | 97.2 | 110 | 103 | 91.8 | 95.2 | 106 | growth at 10 µM [21]: 97.1%; growth at 10 µM [22]: 84%; growth at 10 µM [23]: 100%; growth at 10 µM [24]: 93.7%; growth at 10 µM [25]: 98%; growth at 10 µM [26]: 93.1%; growth at 10 µM [27]: 88.7%; growth at 10 µM [28]: 107%; growth at 10 µM [29]: 94.6%; growth at 10 µM [30]: 114%; growth at 10 µM [31]: 101%; growth at 10 µM [32]: 99.2%; growth at 10 µM [33]: 97.2% |
| O=C1NCC(c2cc3ccccc3[nH]c2=O)Nc2ccccc21 (stereo not drawn) | 111 | 104 | 93.2 | 107 | 103 | 88.6 | 105 | 102 | 92.6 | 100 | 97.5 | 99.7 | 97.9 | 91.2 | 89.9 | 110 | 98.3 | 90.6 | 104 | 100 | growth at 10 µM [21]: 92.4%; growth at 10 µM [22]: 99.6%; growth at 10 µM [23]: 111%; growth at 10 µM [24]: 91%; growth at 10 µM [25]: 102%; growth at 10 µM [26]: 76.8%; growth at 10 µM [27]: 104%; growth at 10 µM [28]: 96.8%; growth at 10 µM [29]: 99.4%; growth at 10 µM [30]: 103%; growth at 10 µM [31]: 103%; growth at 10 µM [32]: 102%; growth at 10 µM [33]: 98.5% |
